Earlier results, collected in patent US20120129178A1, “GENOMIC POLYMORPHISM FOR PREDICTING THERAPEUTIC RESPONSE” (University of Southern California, priority 1999, published 2012).
Like-named read-outs stand apart in the source and are kept apart here.

Columns and labels:
[1] = test system: patients with gastric cancer; conditions: gastric cancer patients treated with 5-Fu
[2] = test system: patients with disseminated colon cancer; conditions: 46 patients with disseminated colon cancer; TS mRNA levels higher than 4.1

SMILES: O=c1[nH]cc(F)c(=O)[nH]1 [5-FU, 5-Fluorouracil]
- median survival ([1]; TS mRNA levels >4.6): 6 months
- median survival ([1]; TS mRNA levels of 54.6 (so in the source)): ≥ 43 months
- response to 5-FU based treatment [2]: No patient with TS mRNA levels higher than 4.1 responded to treatment
